30 compounds from patent publication US12473284B2, “Small molecule inhibitors of ULK1” (Memorial Sloan Kettering Cancer Center, priority 2019, dated 2025) can be followed below.

SMILES strings stand for the structures.

Sequence of protein kinase CDK7 (P50613 whole entry): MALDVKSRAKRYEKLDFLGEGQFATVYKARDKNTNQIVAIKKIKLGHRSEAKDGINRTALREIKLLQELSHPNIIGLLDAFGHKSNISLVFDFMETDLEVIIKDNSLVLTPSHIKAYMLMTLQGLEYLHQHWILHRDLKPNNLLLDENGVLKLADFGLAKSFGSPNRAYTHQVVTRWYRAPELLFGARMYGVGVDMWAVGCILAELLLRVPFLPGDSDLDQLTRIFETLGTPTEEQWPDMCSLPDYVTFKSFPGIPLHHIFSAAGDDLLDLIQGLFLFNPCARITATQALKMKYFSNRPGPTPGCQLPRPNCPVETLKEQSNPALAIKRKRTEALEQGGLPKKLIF
Sequence of protein kinase CDK7 (P51946 whole entry partner): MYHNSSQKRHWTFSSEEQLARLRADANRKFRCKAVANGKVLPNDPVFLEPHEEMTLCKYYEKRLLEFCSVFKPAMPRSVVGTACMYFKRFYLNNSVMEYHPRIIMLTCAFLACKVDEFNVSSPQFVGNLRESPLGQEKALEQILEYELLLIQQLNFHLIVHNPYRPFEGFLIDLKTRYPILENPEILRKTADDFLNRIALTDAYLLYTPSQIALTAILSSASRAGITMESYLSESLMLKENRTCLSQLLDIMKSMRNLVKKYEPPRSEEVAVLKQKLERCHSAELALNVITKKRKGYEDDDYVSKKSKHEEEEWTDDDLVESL
Sequence of protein kinase CDK7 (P51948 whole entry partner): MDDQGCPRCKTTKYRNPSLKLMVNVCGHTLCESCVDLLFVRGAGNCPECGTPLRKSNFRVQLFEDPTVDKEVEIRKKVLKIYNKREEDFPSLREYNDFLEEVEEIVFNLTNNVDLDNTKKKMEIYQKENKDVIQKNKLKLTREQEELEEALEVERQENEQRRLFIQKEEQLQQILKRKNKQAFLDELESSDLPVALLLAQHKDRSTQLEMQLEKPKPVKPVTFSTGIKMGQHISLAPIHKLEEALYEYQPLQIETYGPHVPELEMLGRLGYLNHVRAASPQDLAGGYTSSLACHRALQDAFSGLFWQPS
Sequence of ULK1/Atg13 kinase complex (O75385 whole entry): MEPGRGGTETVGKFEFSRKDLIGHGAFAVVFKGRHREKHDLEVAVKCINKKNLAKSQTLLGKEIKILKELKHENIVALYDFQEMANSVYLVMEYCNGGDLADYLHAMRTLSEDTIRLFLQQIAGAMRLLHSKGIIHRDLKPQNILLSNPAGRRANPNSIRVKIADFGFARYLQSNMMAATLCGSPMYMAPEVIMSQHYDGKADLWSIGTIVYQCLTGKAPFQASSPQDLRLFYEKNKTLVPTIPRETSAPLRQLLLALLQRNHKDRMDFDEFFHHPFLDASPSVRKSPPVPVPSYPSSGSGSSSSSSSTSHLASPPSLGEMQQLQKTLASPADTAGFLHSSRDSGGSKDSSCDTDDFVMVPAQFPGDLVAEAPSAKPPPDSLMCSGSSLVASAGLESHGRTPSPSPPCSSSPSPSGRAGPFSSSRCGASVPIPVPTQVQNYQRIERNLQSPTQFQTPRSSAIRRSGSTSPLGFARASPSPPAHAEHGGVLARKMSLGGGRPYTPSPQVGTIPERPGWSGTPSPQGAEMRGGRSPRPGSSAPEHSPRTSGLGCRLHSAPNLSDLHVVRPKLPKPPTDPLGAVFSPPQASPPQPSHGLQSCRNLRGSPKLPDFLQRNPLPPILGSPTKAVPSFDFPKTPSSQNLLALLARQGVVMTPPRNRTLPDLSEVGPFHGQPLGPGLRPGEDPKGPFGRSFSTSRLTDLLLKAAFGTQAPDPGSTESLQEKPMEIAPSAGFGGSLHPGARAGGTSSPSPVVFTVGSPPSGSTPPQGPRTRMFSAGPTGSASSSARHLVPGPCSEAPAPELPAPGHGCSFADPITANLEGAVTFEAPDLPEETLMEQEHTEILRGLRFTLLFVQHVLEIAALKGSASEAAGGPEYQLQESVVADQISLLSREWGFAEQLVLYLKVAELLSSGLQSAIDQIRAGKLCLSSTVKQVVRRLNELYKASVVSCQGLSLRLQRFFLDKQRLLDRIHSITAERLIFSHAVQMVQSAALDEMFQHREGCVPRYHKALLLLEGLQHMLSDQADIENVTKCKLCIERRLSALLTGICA
Sequence of ULK1/Atg13 kinase complex (O75143 whole entry partner): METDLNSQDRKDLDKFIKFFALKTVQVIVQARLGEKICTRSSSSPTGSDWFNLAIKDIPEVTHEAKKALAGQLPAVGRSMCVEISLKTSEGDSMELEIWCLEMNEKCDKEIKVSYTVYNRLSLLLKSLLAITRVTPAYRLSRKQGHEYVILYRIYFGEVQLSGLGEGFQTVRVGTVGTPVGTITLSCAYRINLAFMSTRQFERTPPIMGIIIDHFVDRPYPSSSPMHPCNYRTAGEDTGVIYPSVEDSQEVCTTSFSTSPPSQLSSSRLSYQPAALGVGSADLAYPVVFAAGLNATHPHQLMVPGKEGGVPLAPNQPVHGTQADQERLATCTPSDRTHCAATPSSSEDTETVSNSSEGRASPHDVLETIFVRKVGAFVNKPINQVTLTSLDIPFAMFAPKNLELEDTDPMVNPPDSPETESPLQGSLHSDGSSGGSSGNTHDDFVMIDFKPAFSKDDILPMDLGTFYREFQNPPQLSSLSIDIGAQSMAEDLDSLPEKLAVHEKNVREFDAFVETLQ

For the first assay, the system named is MiaCaPa-2 cancer cells. Nature of the assay: MiaCaPa-2 pancreatic ductal adenocarcinoma (PDAC) cell line xenograft mice model. In kind it is in vivo. As to conditions: MSK-A170-PEAK2 10 mg/kg + trametinib 0.5 mg/kg, i.p., 6 days a week, 17 days, female athymic nude mice. How it is done:
FIG. 1 illustrates the final tumor weights for four groups on mice in a MiaCaPa-2 cell line xenograft mouse model, where “Control” group mice were treated 6 days a week, i.p., for 17 days with dosing vehicle; “ULK1i” group mice were treated 6 days a week, i.p., for 17 days with a compound of the present technology, 10 mg/kg; “MEKi” group mice were treated 6 days a week, i.p., for 17 days with MEK1 inhibitor trametinib, 0.5 mg/kg; “ULK1i+MEKi” group mice were treated 6 days a week, i.p., for 17 days with a combination of the compound of the present technology (10 mg/kg) and trametinib (0.5 mg/kg), according to the working examples.
FIG. 2 provides the tumor volume over time for each group of the xenograft mouse model study that provided the data of FIG. 1, according to the working examples.
Female athymic nude (Foxn1^nu) mice were implanted with 2×10^6 MiaCaPa-2 cancer cells per animal subcutaneously at the right flank. […] The tumor volume was measured on 1, 3, 5, 7, 9, 11, 13, 15, and 17. […]
In the case of `C[C@@H](N)C1CCC(C(=O)Nc2ccnc3[nH]c(-c4ccccc4)cc23)CC1` (single isomer, unassigned) [MSK-A170-PEAK2], the “tumor weight / tumor volume, combination with trametinib versus trametinib alone” value was “significantly improved results”.

In another assay the target is ULK1/Atg13 kinase complex (Homo sapiens (Human), UniProt O75385). Nature of the assay: In vitro kinase assay (Kinase-Glo Plus luminescence, MBP 1-20 peptide substrate). In kind it is biochemical. The following applies: recombinant His-tagged ULK1/Atg13, 75 min at room temperature; salt form as in Table 1. How it is done:
In vitro kinase assays were performed as described below:
Recombinant His-tagged ULK1/Atg13 kinase complex was expressed in […] insect cells, and affinity-purified by Ni-NTA beads, aliquoted and stored at −80° C.
Compounds were dissolved in DMSO to make 10 mM stock solution, aliquoted and stored at −80° C.
1× kinase buffer was prepared: 20 mM Tris-HCl, pH7.5, 100 mM NaCl, 5 mM MgCl2, 0.5 mg/ml BSA, 5 mM DTT, 0.1% Tween-20.
For compound screening experiment, 1 μl of the 10 mM compound stock solution was added using P2.5 pipette into 99 μl 1×kinase buffer to make 100 μM working solution.
For compound titration experiment, 100 μM compound solution was further diluted (with 1×kinase buffer containing 1% DMSO) in a series manner.
30 mM MBP (Myelin basic protein) 1-20 peptide (sequence: […]; SEQ ID NO: 1) was prepared in 1× kinase buffer.
500 μM ATP was prepared in 1× kinase buffer.
Pre-incubation reactions were set up as shown in the Table below and pre-incubated for 10 min at room temperature.
4 μl of 500 μM ATP was added to the pre-incubation reaction (thus the final reaction volume is 20 μl) and incubated for 75 min at room temperature.
20 μl Kinase-Glo Plus (Promega) was added to the reaction (warmed to RT), mixed well and incubated at room temperature for 15 min.
20 μl reaction was pipetted into each well of a white 384-well plate.
the 384-well plate was subjected to brief centrifugation, and luminescence was read in a plate reader.
Calculated inhibition (%) was calculated as follows: […]
In general terms: Kinase-Glo measures the ATP left after a reaction by luminescence.
The IC50 is the concentration needed to halve the response being measured. As to `CC(N)C1CCC(C(=O)Cc2ccnc3[nH]c(-c4cccc(F)c4)cc23)CC1` (stereo not shown) [MSK-A191], the IC50 came to 20.6 nM. The same measure, in the same setting: the figure for `CC(N)C1CCC(C(=O)Nc2ccnc3[nH]c(-c4nccs4)cc23)CC1` (stereo not shown) [MSK-A178] is 47 nM; for `COc1ccc(-c2cc3c(CC(=O)C4CCC(C(C)N)CC4)ccnc3[nH]2)cc1` (stereo not shown) [MSK-A188] it is 19.4 nM. On to `CC(N)C1CCC(C(=O)Nc2ccnc3[nH]c(-c4cccc(F)c4)cc23)CC1` (single isomer, unassigned) [MSK-A191_peak 2, (1r,4r)-4-(1-aminoethyl)-N-(2-(3-fluorophenyl)-1H-pyrrolo[2,3-b]pyridin-4-yl)cyclohexanecarboxamide], for which the IC50 is 59.1 nM. `CC(N)C1CCC(C(=O)Nc2ccnc3[nH]c(-c4ccsc4)cc23)CC1` (stereo not shown) [MSK-A176]: the concentration for half-maximal inhibition (IC50) is 5 nM.

As for `C[C@@H](N)C1CCC(C(=O)Nc2ccnc3[nH]c(-c4ccccc4)cc23)CC1` (stereo partly shown) [MSK-A170, (1r,4r)-4-(1-aminoethyl)-N-(2-phenyl-1H-pyrrolo[2,3-b]pyridin-4-yl)cyclohexanecarboxamide], the half-inhibitory concentration (IC50) was 18 nM. On the same count and under the same terms, the figure for `CC(N)C1CCC(C(=O)Nc2ccnc3[nH]c(-c4ccsc4)cc23)CC1` (single isomer, unassigned) [MSK-A176-peak 1, (1r,4r)-4-(1-aminoethyl)-N-(2-(thiophen-3-yl)-1H-pyrrolo[2,3-b]pyridin-4-yl)cyclohexanecarboxamide] is 56.2 nM. The same measure, in the same setting: the figure for `CC(N)C1CCC(C(=O)Cc2ccnc3[nH]c(-c4cccc(C5CC5)c4)cc23)CC1` (stereo not shown) [MSK-A193] is 26.3 nM. The same measure, in the same setting: with `C[C@@H](N)C1CCC(C(=O)Nc2ccnc3occc23)CC1` (stereo partly shown) [MSK-A091, (1r,4r)-4-(1-aminoethyl)-N-(furo[2,3-b]pyridin-4-yl)cyclohexanecarboxamide] the figure was 2200 nM; with `CC(N)C1CCC(C(=O)Nc2ccnc3[nH]c(-n4ccnc4)cc23)CC1` (stereo not shown) [MSK-A181, (1r,4r)-N-(2-(1H-imidazol-1-yl)-1H-pyrrolo[2,3-b]pyridin-4-yl)-4-(1-aminoethyl)cyclohexanecarboxamide], 515 nM; with `CC(N)C1CCC(C(=O)Nc2ccnc3[nH]c(-c4cccc(F)c4)cc23)CC1` (single isomer, unassigned) [MSK-A191_peak 1, (1r,4r)-4-(1-aminoethyl)-N-(2-(3-fluorophenyl)-1H-pyrrolo[2,3-b]pyridin-4-yl)cyclohexanecarboxamide], 40.8 nM. Regarding `CC(N)C1CCC(C(=O)Cc2ccnc3[nH]c(-c4cccc(C(F)(F)F)c4)cc23)CC1` (stereo not shown) [MSK-A194], the IC50 was found to be 29.2 nM. The same measure, in the same setting: with `Cc1cccc(-c2cc3c(CC(=O)C4CCC(C(C)N)CC4)ccnc3[nH]2)c1` (stereo not shown) [MSK-A192] the figure was 20.2 nM; with `CC(N)C1CCC(C(=O)Nc2ccnc3[nH]c(-c4ccc(F)cc4)cc23)CC1` (single isomer, unassigned) [MSK-A184_peak 2, (1r,4r)-4-(1-aminoethyl)-N-(2-(4-fluorophenyl)-1H-pyrrolo[2,3-b]pyridin-4-yl)cyclohexanecarboxamide], 38.9 nM. On to `CC(N)C1CCC(C(=O)Nc2ccnc3[nH]c(-c4nccn4C)cc23)CC1` (stereo not shown) [MSK-A171, (1r,4r)-4-(1-aminoethyl)-N-(2-(1-methyl-1H-imidazol-2-yl)-1H-pyrrolo[2,3-b]pyridin-4-yl)cyclohexanecarboxamide], for which the half-inhibitory concentration (IC50) came out at 1450 nM. On to `CC(N)C1CCC(C(=O)Nc2ccnc3[nH]c(-c4cccs4)cc23)CC1` (stereo not shown) [MSK-A177], for which the IC50 stood at 54 nM. Same read-out and setting: the figure for `COC(=O)[C@H](N)[C@H]1CC[C@H](C(=O)Nc2ccnc3[nH]c(-c4ccccc4)cc23)CC1` [MSK-A183, (R)-methyl 2-amino-2-((1r,4R)-4-((2-phenyl-1H-pyrrolo[2,3-b]pyridin-4-yl)carbamoyl)cyclo-hexyl)acetate] is 185 nM. In the case of `CC(N)C1CCC(C(=O)Nc2ccnc3[nH]c(-c4ncco4)cc23)CC1` (stereo not shown) [MSK-A202], the 50% inhibitory concentration (IC50) amounted to 156 nM. On to `CC(N)C1CCC(C(=O)Nc2ccnc3[nH]c(-c4ncccn4)cc23)CC1` (stereo not shown) [MSK-A180], for which the 50% inhibitory concentration (IC50) came to 2380 nM. Same read-out and setting: the figure for `CC(N)C1CCC(C(=O)Nc2ccnc3[nH]c(-c4ncc[nH]4)cc23)CC1` (stereo not shown) [MSK-A157, (1r,4r)-N-(2-(1H-imidazol-2-yl)-1H-pyrrolo[2,3-b]pyridin-4-yl)-4-(1-aminoethyl)cyclohexanecarboxamide] is 73 nM. Same read-out and setting: with `COC(=O)[C@@H](N)[C@H]1CC[C@H](C(=O)Nc2ccnc3[nH]c(-c4ccccc4)cc23)CC1` [MSK-A182, (S)-methyl 2-amino-2-((1r,4S)-4-((2-phenyl-1H-pyrrolo[2,3-b]pyridin-4-yl)carbamoyl)cyclo-hexyl)acetate] the figure was 22.9 nM. Still for that read-out and setting: with `CC(N)C1CCC(C(=O)Nc2ccnc3[nH]c(-c4ccc(F)cc4)cc23)CC1` (single isomer, unassigned) [MSK-A184_peak 1, (1r,4r)-4-(1-aminoethyl)-N-(2-(4-fluorophenyl)-1H-pyrrolo[2,3-b]pyridin-4-yl)cyclohexanecarboxamide] the figure was 15.5 nM.

In the case of `CC(N)C1CCC(C(=O)Nc2ccnc3[nH]c(-c4ccsc4)cc23)CC1` (single isomer, unassigned) [MSK-A176-peak 2, (1r,4r)-4-(1-aminoethyl)-N-(2-(thiophen-3-yl)-1H-pyrrolo[2,3-b]pyridin-4-yl)cyclohexanecarboxamide], the IC50 was 23.6 nM. With `CC(N)C1CCC(C(=O)Nc2ccnc3[nH]c(-c4cscn4)cc23)CC1` (stereo not shown) [MSK-A199], the IC50 was 109 nM. Turning to `CC(N)C1CCC(C(=O)Cc2ccnc3[nH]c(-c4ccc(F)cc4)cc23)CC1` (stereo not shown) [MSK-A184], the half-inhibitory concentration (IC50) is 18.9 nM. On the same count and under the same terms, with `CC(N)C1CCC(C(=O)Nc2ccnc3[nH]c(-n4cccn4)cc23)CC1` (stereo not shown) [MSK-A173, (1r,4r)-N-(2-(1H-pyrazol-1-yl)-1H-pyrrolo[2,3-b]pyridin-4-yl)-4-(1-aminoethyl)cyclohexanecarboxamide] the figure was 630 nM; with `CC(N)C1CCC(C(=O)Cc2ccnc3[nH]c(-c4ccc(C#N)cc4)cc23)CC1` (stereo not shown) [MSK-A189], 18.3 nM; with `C[C@@H](N)C1CCC(C(=O)Nc2ccnc3[nH]c(-c4ccccn4)cc23)CC1` (stereo partly shown) [MSK-A172, (1r,4r)-4-(1-aminoethyl)-N-(2-(pyridin-2-yl)-1H-pyrrolo [2,3-b]pyridin-4-yl)cyclohexanecarboxamide], 110 nM. Still for that read-out and setting: the figure for `CC(N)C1CCC(C(=O)Nc2ccnc3[nH]c(-c4ccc5ccccc5c4)cc23)CC1` (stereo not shown) [MSK-A190] is 23.8 nM.

The next assay addresses protein kinase CDK7 (Homo sapiens (Human), UniProt P50613). The assay is described as follows: Inhibition of protein kinase CDK7. In kind it is biochemical.
Settings: not given
As for `CC(N)C1CCC(C(=O)Cc2ccnc3[nH]c(-c4cccc(F)c4)cc23)CC1` (stereo not shown) [MSK-A191], the “inhibition of protein kinase CDK7 (potency)” value was “low nM potency”. On the same count and under the same terms, with `CC(N)C1CCC(C(=O)Nc2ccnc3[nH]c(-c4ccsc4)cc23)CC1` (stereo not shown) [MSK-A176] the entry was “low nM potency”; with `CC(N)C1CCC(C(=O)Cc2ccnc3[nH]c(-c4ccc(F)cc4)cc23)CC1` (stereo not shown) [MSK-A184], “low nM potency”.

For `CC(N)C1CCC(C(=O)Cc2ccnc3[nH]c(-c4ccc(C#N)cc4)cc23)CC1` (stereo not shown) [MSK-A189], the “inhibition of protein kinase CDK7 (potency)” value is reported as “low nM potency”.
